From ChEMBL document CHEMBL1201862, “PubChem BioAssay data set” (2004)
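Compound exposure: 48 hours, 5 concentrations, 96-well plates. GI50 is the concentration that inhibits growth by half.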 Calls of active or inactive are those of the source. Cut-off read from the data, not from the text of the source: active = GI50 up to about 1.1 µM and inactive = higher.

How the values were obtained:
Experiment in all cases: NCI anticancer screen, dose series, 48 h
A498 = test system: A498
A549 = test system: A549
EKVX = test system: EKVX
HOP-18 = test system: HOP-18
HT-29 = test system: HT-29
MOLT-4 = test system: MOLT-4
Malme-3M = test system: Malme-3M
NCI-H226 = test system: NCI-H226
NCI-H460 = test system: NCI-H460
NCI-H522 = test system: NCI-H522
OVCAR-5 = test system: OVCAR-5
SF-295 = test system: SF-295
SK-MEL-28 = test system: SK-MEL-28
SNB-78 = test system: SNB-78
UACC-62 = test system: UACC-62
XF498 = test system: XF498

Question: For `C/C=C1/C(=O)O[C@]23C=C[C@@H]4C(C(=O)OC)=CO[C@H](O[C@@H]12)[C@@H]43` [PLUMERICIN], which GI50 (A498) is on record?
Answer: The GI50 was 0.838 µM (active).

Question: And the GI50 (A549)?
Answer: The GI50 was 3.47 µM (inactive).

Question: And the GI50 (EKVX)?
Answer: Its GI50 is 1.3 µM (inactive).

Question: And the GI50 (HOP-18)?
Answer: Its GI50 is 4.67 µM (inactive).

Question: What about the GI50 (HT-29) of the same compound?
Answer: Its GI50 is 2.18 µM (inactive).

Question: And the GI50 (MOLT-4)?
Answer: Its GI50 is 0.459 µM (active).

Question: What about the GI50 (Malme-3M) of the same compound?
Answer: Its GI50 is 1.93 µM (inactive).

Question: What about the GI50 (NCI-H226) of the same compound?
Answer: The GI50 was 2.44 µM (inactive).

Question: And the GI50 (NCI-H460)?
Answer: The GI50 was 2.08 µM (inactive).

Question: And the GI50 (NCI-H522)?
Answer: The GI50 was 0.353 µM (active).

Question: And the GI50 (OVCAR-5)?
Answer: Its GI50 is 3.66 µM (inactive).

Question: And the GI50 (SF-295)?
Answer: Its GI50 is 2.46 µM (inactive).

Question: And the GI50 (SK-MEL-28)?
Answer: Its GI50 is 1 µM (active).

Question: And the GI50 (SNB-78)?
Answer: Its GI50 is 1.94 µM (inactive).

Question: And the GI50 (UACC-62)?
Answer: Its GI50 is 0.815 µM (active).

Question: What about the GI50 (XF498) of the same compound?
Answer: The GI50 was 1.38 µM (inactive).

Question: For `N#C/C(=C\c1ccncc1)c1csc2ccccc12`, which GI50 (A498) is on record?
Answer: Its GI50 is 21.3 µM (inactive).

Question: What about the GI50 (A549) of the same compound?
Answer: The GI50 was 23.4 µM (inactive).

Question: What about the GI50 (EKVX) of the same compound?
Answer: Its GI50 is 23.8 µM (inactive).

Question: And the GI50 (HOP-18)?
Answer: Its GI50 is 31.1 µM (inactive).

Question: And the GI50 (HT-29)?
Answer: The GI50 was 18.6 µM (inactive).

Question: What about the GI50 (MOLT-4) of the same compound?
Answer: The GI50 was 15.5 µM (inactive).

Question: And the GI50 (Malme-3M)?
Answer: Its GI50 is 32.7 µM (inactive).

Question: And the GI50 (NCI-H226)?
Answer: Its GI50 is 26.4 µM (inactive).

Question: And the GI50 (NCI-H460)?
Answer: The GI50 was 24.9 µM (inactive).

Question: What about the GI50 (NCI-H522) of the same compound?
Answer: Its GI50 is 17.5 µM (inactive).

Question: What about the GI50 (OVCAR-5) of the same compound?
Answer: Its GI50 is 42.3 µM (inactive).

Question: And the GI50 (SF-295)?
Answer: The GI50 was 32.4 µM (inactive).

Question: And the GI50 (SK-MEL-28)?
Answer: The GI50 was 34.1 µM (inactive).

Question: And the GI50 (SNB-78)?
Answer: The GI50 was 23.8 µM (inactive).

Question: What about the GI50 (UACC-62) of the same compound?
Answer: Its GI50 is 22.1 µM (inactive).

Question: And the GI50 (XF498)?
Answer: The GI50 was 22.3 µM (inactive).
